Tests used:
HeLa [1] = test: Growth inhibition of human HeLa cells at 10 uM after 72 hrs by MTT assay relative to control; format: functional; details: read-out: GI
A2780 [2] = test: Growth inhibition of human A2780 cells at 30 uM after 72 hrs by MTT assay relative to control; format: functional; details: A2780, 72 h, read-out: GI
MCF7 [3] = test: Growth inhibition of human MCF7 cells at 30 uM after 72 hrs by MTT assay relative to control; format: functional; details: MCF7, 72 h, read-out: GI
HeLa [4] = test: Growth inhibition of human HeLa cells at 30 uM after 72 hrs by MTT assay relative to control; format: functional; details: read-out: GI
MCF7 [5] = test: Growth inhibition of human MCF7 cells at 10 uM after 72 hrs by MTT assay relative to control; format: functional; details: MCF7, 72 h, read-out: GI
A2780 [6] = test: Growth inhibition of human A2780 cells at 10 uM after 72 hrs by MTT assay relative to control; format: functional; details: A2780, 72 h, read-out: GI
MCF7 [7] = test: Antiproliferative activity against human MCF7 cells after 72 hrs by MTT assay; format: functional, cell-based; details: MCF7, 72 h
A2780 [8] = test: Antiproliferative activity against human A2780 cells after 72 hrs by MTT assay; format: functional, cell-based; details: A2780, 72 h
HeLa [9] = test: Antiproliferative activity against human HeLa cells after 72 hrs by MTT assay; format: functional, cell-based
[10] = Growth inhibition of mouse NIH/3T3 cells at 30 uM after 72 hrs by MTT assay relative to control; format: cell-based, NIH3T3; details: read-out: GI
[11] = Growth inhibition of mouse NIH/3T3 cells at 10 uM after 72 hrs by MTT assay relative to control; format: cell-based, NIH3T3; details: read-out: GI

Compound | inhibition of growth at 10 µM (HeLa [1]) | inhibition of growth at 30 µM (A2780 [2]) | inhibition of growth at 30 µM (MCF7 [3]) | inhibition of growth at 30 µM (HeLa [4]) | inhibition of growth at 10 µM (MCF7 [5]) | inhibition of growth at 10 µM (A2780 [6]) | IC50 (MCF7 [7]) | IC50 (A2780 [8]) | IC50 (HeLa [9]) | inhibition at 72 h, 30 µM [10] | inhibition at 72 h, 10 µM [11]
CCC[C@H]1[C@@H]2CCc3cc(OCc4cn([C@@H]5O[C@H](COC(C)=O)[C@H](OC(C)=O)[C@H](OC(C)=O)[C@H]5OC(C)=O)nn4)ccc3[C@H]2CC[C@]1(C)CO | 23.9% | 32.7% | 61.9% | 31.8% | < 20% | < 20% | – | – | – | – | –
CCC[C@H]1[C@@H]2CCc3cc(OCc4cn([C@@H]5O[C@H](CO)[C@@H](O)[C@H](O)[C@H]5O)nn4)ccc3[C@H]2CC[C@]1(C)CO | < 20% | < 20% | < 20% | < 20% | < 20% | < 20% | – | – | – | – | –
CCC[C@H]1[C@@H]2CCc3cc(OCc4cn([C@@H]5O[C@H](CO)[C@@H](O)[C@H](O)[C@H]5O)nn4)ccc3[C@H]2CC[C@]1(C)/C=N/O | < 20% | 57.9% | < 20% | 31.5% | < 20% | < 20% | > 30 µM | 27.4 µM | > 30 µM | – | –
CCC[C@H]1[C@@H]2CCc3cc(OCc4cn([C@H]5O[C@H](COC(C)=O)[C@@H](OC(C)=O)[C@H](OC(C)=O)[C@@H]5OC(C)=O)nn4)ccc3[C@H]2CC[C@]1(C)/C=N/O | 52.4% | 86.4% | 65.9% | 89.6% | 53.9% | 69.5% | 9.4 µM | 6.6 µM | 8.9 µM | 34.8% | 27.3%
CCC[C@H]1[C@@H]2CCc3cc(OCc4cn(C[C@H]5O[C@H](OC)[C@@H](OC(=O)c6ccccc6)[C@@H](OC(=O)c6ccccc6)[C@@H]5OC(=O)c5ccccc5)nn4)ccc3[C@H]2CC[C@]1(C)/C=N/O | < 20% | < 20% | < 20% | < 20% | < 20% | < 20% | – | – | – | – | –
CCC[C@H]1[C@@H]2CCc3cc(OCc4cn(C[C@H]5O[C@H](OC)[C@H](OC(=O)c6ccccc6)[C@@H](OC(=O)c6ccccc6)[C@@H]5OC(=O)c5ccccc5)nn4)ccc3[C@H]2CC[C@]1(C)/C=N/O | < 20% | 45.7% | < 20% | < 20% | < 20% | 28.4% | – | – | – | – | –
CCC[C@H]1[C@@H]2CCc3cc(OCc4cn([C@@H]5O[C@H](COC(C)=O)[C@@H](OC(C)=O)[C@H](OC(C)=O)[C@H]5OC(C)=O)nn4)ccc3[C@H]2CC[C@]1(C)CO | 34.5% | 19.5% | 45.5% | 23.9% | 27.4% | 21% | – | – | – | – | –
CCC[C@H]1[C@@H]2CCc3cc(OCc4cn(C[C@H]5O[C@H](OC)[C@H](OC(=O)c6ccccc6)[C@@H](OC(=O)c6ccccc6)[C@@H]5OC(=O)c5ccccc5)nn4)ccc3[C@H]2CC[C@]1(C)CO | < 20% | < 20% | < 20% | < 20% | < 20% | < 20% | – | – | – | – | –
CCC[C@H]1[C@@H]2CCc3cc(OCc4cn([C@H]5O[C@H](COC(C)=O)[C@@H](OC(C)=O)[C@H](OC(C)=O)[C@@H]5OC(C)=O)nn4)ccc3[C@H]2CC[C@]1(C)CO | 51.9% | 36.5% | 54.3% | 41.5% | 26.3% | 34.9% | – | – | – | – | –
CCC[C@H]1[C@@H]2CCc3cc(OCc4cn([C@@H]5O[C@H](COC(C)=O)[C@H](OC(C)=O)[C@H](OC(C)=O)[C@H]5OC(C)=O)nn4)ccc3[C@H]2CC[C@]1(C)/C=N/O | 31.5% | 85.2% | 71.5% | 61.9% | 59.1% | 59.3% | 8 µM | 8.8 µM | 20.5 µM | 25.5% | < 20%
CCC[C@H]1[C@@H]2CCc3cc(OCc4cn(C[C@H]5O[C@@H](OC)[C@H](OC(=O)c6ccccc6)[C@@H]5OC(=O)c5ccccc5)nn4)ccc3[C@H]2CC[C@]1(C)CO | < 20% | < 20% | < 20% | < 20% | < 20% | < 20% | – | – | – | – | –
CCC[C@H]1[C@@H]2CCc3cc(OCc4cn(C[C@H]5O[C@H](OC)[C@@H](OC(=O)c6ccccc6)[C@@H](OC(=O)c6ccccc6)[C@@H]5OC(=O)c5ccccc5)nn4)ccc3[C@H]2CC[C@]1(C)CO | < 20% | < 20% | < 20% | < 20% | < 20% | < 20% | – | – | – | – | –
CCC[C@H]1[C@@H]2CCc3cc(OCc4cn(C[C@H]5O[C@@H](OC)[C@H](OC(=O)c6ccccc6)[C@@H]5OC(=O)c5ccccc5)nn4)ccc3[C@H]2CC[C@]1(C)/C=N/O | 24.3% | < 20% | < 20% | < 20% | < 20% | < 20% | – | – | – | – | –
CCC[C@H]1[C@@H]2CCc3cc(OCc4cn([C@@H]5O[C@H](COC(C)=O)[C@@H](OC(C)=O)[C@H](OC(C)=O)[C@H]5OC(C)=O)nn4)ccc3[C@H]2CC[C@]1(C)/C=N/O | 20.4% | 76.7% | 67.7% | 40% | 46.7% | 69.5% | 10.7 µM | 5.3 µM | > 30 µM | 28.4% | < 20%

Reference: ChEMBL document CHEMBL4014294, “Synthesis and in vitro investigation of potential antiproliferative monosaccharide-d-secoestrone bioconjugates” (Bioorg Med Chem Lett, 2017)
